mortality, Activity and LC50 data for two molecules are collected here from ChEMBL document CHEMBL3046088, “Systemic effects of thiamethoxam and chlorantraniliprole seed treatments on adult Lissorhoptrus oryzophilus (Coleoptera: Curculionidae) in rice” (2013).

The subject of experiment [1] is Lissorhoptrus oryzophilus. The experiment is described as follows: Insecticidal activity against Lissorhoptrus oryzophilus in rice plants assessed as mortality at 50 ug treated as seed measured after 72 hr of feeding (reference value: 15 +/- 2.9%). The experiment is classed as functional.
The subject of experiment [2] is Lissorhoptrus oryzophilus. Put plainly: Insecticidal activity against Lissorhoptrus oryzophilus in rice plants assessed as mortality at 10 ug treated as seed measured after 72 hr of feeding (reference value: 15 +/- 2.9%). The experiment is classed as functional.
Experiment [3] has as its system Lissorhoptrus oryzophilus. Put plainly: Insecticidal activity against Lissorhoptrus oryzophilus in rice plants assessed as leaf consumption rate per day at 50 ug treated as seed measured after 72 hr of feeding (reference value: 8.3 +/- 0.7 mm'2 /day). Type of experiment: functional.
Experiment [4] deals with Lissorhoptrus oryzophilus. Put plainly: Insecticidal activity against Lissorhoptrus oryzophilus in rice plants assessed as leaf consumption rate per day at 100 ug treated as seed measured after 72 hr of feeding (reference value: 8.3 +/- 0.7 mm'2 /day). The experiment is classed as functional.
Experiment [5] relates to Lissorhoptrus oryzophilus. Put plainly: Insecticidal activity against Lissorhoptrus oryzophilus in rice plants assessed as leaf consumption rate per day at 10 ug treated as seed measured after 72 hr of feeding (reference value: 8.3 +/- 0.7 mm'2 /day). Type of experiment: functional.
The test system of experiment [6] is Lissorhoptrus oryzophilus. The experiment is described as follows: Insecticidal activity against Lissorhoptrus oryzophilus in rice plants assessed as mortality at 100 ug treated as seed measured after 72 hr of feeding (reference value: 15 +/- 2.9%). The experiment is classed as functional.
Experiment [7] has as its system Lissorhoptrus oryzophilus. The experiment is described as follows: Insecticidal activity against Lissorhoptrus oryzophilus in rice plants assessed as mortality at 25 ug treated as seed measured after 72 hr of feeding (reference value: 15 +/- 2.9%). The experiment is classed as functional.
The subject of experiment [8] is Lissorhoptrus oryzophilus. Put plainly: Insecticidal activity against Lissorhoptrus oryzophilus in rice plants assessed as leaf consumption rate per day at 25 ug treated as seed measured after 72 hr of feeding (reference value: 8.3 +/- 0.7 mm'2 /day). The experiment is classed as functional.
Experiment [9] relates to Lissorhoptrus oryzophilus. The experiment is described as follows: Insecticidal activity against Lissorhoptrus oryzophilus in rice plants assessed as leaf consumption rate per day at 7 ug treated as seed measured after 72 hr of feeding (reference value: 8.3 +/- 0.5 mm'2 /day). The experiment is classed as functional.
For experiment [10], the system named is Lissorhoptrus oryzophilus. The experiment is described as follows: Insecticidal activity against Lissorhoptrus oryzophilus in rice plants assessed as mortality at 28 ug treated as seed measured after 72 hr of feeding (reference value: 3.8 +/- 1.8%). Type of experiment: functional.
Experiment [11] relates to Lissorhoptrus oryzophilus. The experiment is described as follows: Insecticidal activity against Lissorhoptrus oryzophilus in five to six-leaf stage rice plants assessed as mortality treated as seed measured after 72 hr of feeding. Type of experiment: functional, organism-based.
Experiment [12] deals with Lissorhoptrus oryzophilus. The experiment is described as follows: Insecticidal activity against Lissorhoptrus oryzophilus in rice plants assessed as mortality at 35 ug treated as seed measured after 72 hr of feeding (reference value: 3.8 +/- 1.8%). Type of experiment: functional.
For experiment [13], the system named is Lissorhoptrus oryzophilus. Put plainly: Insecticidal activity against Lissorhoptrus oryzophilus in two to three-leaf stage rice plants assessed as mortality treated as seed measured after 72 hr of feeding. Type of experiment: functional.
Experiment [14] concerns Lissorhoptrus oryzophilus. Put plainly: Insecticidal activity against Lissorhoptrus oryzophilus in rice plants assessed as mortality at 21 ug treated as seed measured after 72 hr of feeding (reference value: 3.8 +/- 1.8%). The experiment is classed as functional.
Experiment [15] deals with Lissorhoptrus oryzophilus. Put plainly: Insecticidal activity against Lissorhoptrus oryzophilus in rice plants assessed as leaf consumption rate per day at 14 ug treated as seed measured after 72 hr of feeding (reference value: 8.3 +/- 0.5 mm'2 /day). Type of experiment: functional.
Experiment [16] has as its system Lissorhoptrus oryzophilus. The experiment is described as follows: Insecticidal activity against Lissorhoptrus oryzophilus in rice plants assessed as mortality at 14 ug treated as seed measured after 72 hr of feeding (reference value: 3.8 +/- 1.8%). The experiment is classed as functional.
For experiment [17], the system named is Lissorhoptrus oryzophilus. Put plainly: Insecticidal activity against Lissorhoptrus oryzophilus in rice plants assessed as mortality at 7 ug treated as seed measured after 72 hr of feeding (reference value: 3.8 +/- 1.8%). The experiment is classed as functional.
The subject of experiment [18] is Lissorhoptrus oryzophilus. Put plainly: Insecticidal activity against Lissorhoptrus oryzophilus in three to four-leaf stage rice plants assessed as mortality treated as seed measured after 72 hr of feeding. Type of experiment: functional.
Experiment [19] relates to Lissorhoptrus oryzophilus. The experiment is described as follows: Insecticidal activity against Lissorhoptrus oryzophilus in rice plants assessed as leaf consumption rate per day at 35 ug treated as seed measured after 72 hr of feeding (reference value: 8.3 +/- 0.5 mm'2 /day). Type of experiment: functional.
Experiment [20] concerns Lissorhoptrus oryzophilus. Put plainly: Insecticidal activity against Lissorhoptrus oryzophilus in rice plants assessed as leaf consumption rate per day at 28 ug treated as seed measured after 72 hr of feeding (reference value: 8.3 +/- 0.5 mm'2 /day). Type of experiment: functional.
Experiment [21] relates to Lissorhoptrus oryzophilus. Put plainly: Insecticidal activity against Lissorhoptrus oryzophilus in rice plants assessed as leaf consumption rate per day at 21 ug treated as seed measured after 72 hr of feeding (reference value: 8.3 +/- 0.5 mm'2 /day). Type of experiment: functional.

The source made the active and inactive calls. No cut-off for these calls is given here.

Turning to `CNC(=O)c1cc(Cl)cc(C)c1NC(=O)c1cc(Br)nn1-c1ncccc1Cl` [CHLORANTRANILIPROLE], the mortality in experiment [1] is recorded as 12.5%; in [2] it was 10%; in [6], 16.3%; in experiment [7] it was 20%. Also, the Activity in experiment [3] is 7.3 mm2; in experiment [4], 9.4 mm2; in [5], 8.3 mm2; in [8] it was 6.7 mm2.

Turning to `CN1COCN(Cc2cnc(Cl)s2)/C1=N\[N+](=O)[O-]` [THIAMETHOXAM], the Activity turned out to be 6.9 mm2 in experiment [9]; 6.6 mm2 in [15]; 6.4 mm2 in experiment [19]; 5.2 mm2 in experiment [20]; 5.5 mm2 in [21]. Besides, the mortality was 42.5% in [10]; 45% in experiment [12]; 28.8% in experiment [14]; 21.3% in [16]; 22.5% in [17]. For the same molecule, in experiment [11], the outcome was Active. In addition, the LC50 came to 447 pg in [13] and 142 pg in [18].
